Patent US8691864B2, “Agents useful for reducing amyloid precursor protein and treating dementia and methods of use thereof” (priority 2000, dated 2014)

What was measured:
secreted APP = assay: ELISA for secreted APP in SHSY5Y cells; type: cell-based, human; details: 16 hours
Procedure: (§1) An enzyme-linked immunosorbent assay was developed to detect secreted APP in SHSY5Y cells, a human neuroblastoma cell line. The purpose of the screen was to discover small molecules that inhibit APP protein synthesis in SHSY5Y cells. SHSY5Y cells were plated at 1×10^5 cells/well in […] of DMEM containing 0.5% heat inactivated FBS in 96 well tissue culture treated plates (Falcon no. 35 3072). 144 MES compounds were tested at final concentrations of […] in 0.1% DMSO. Compounds were added and the plates incubated for 16 hours at 37° C./5% CO2. Maxisorp plates (Nunc no. 437958) were coated overnight with […] capture antibody (Biosource 44-100) diluted in Ca^++ and Mg^++ free PBS. Biosource 44-100 is a mouse mAb that recognizes aa 1-100 of human APP. Plates were blocked for 30 minutes with 1 mg/mL BSA in Ca^++ and Mg^++ free PBS. Plates were washed 3× with wash buffer (Ca^++ and Mg^++ free PBS+0.01% Tween20). […] of supernatants and non-cultured medium controls were transferred from culture plates to ELISA plates. Culture plates were reserved for toxicity analysis. Supernatants were incubated for 4 hours at RT on a plate shaker. After supernatant incubation, plates were washed 3×. Primary antibody (Signet Clone 6E-10 biotin) was added at 0.3125 mg/mL and incubated overnight at 4° C. The recognition site of 6E-10 is aa 1-17 of Ab. For detection, a 1:3000 dilution of horseradish peroxidase conjugated streptavidin (Endogen no. N-100) was incubated for 30 minutes. Plates were washed 3×. Enzyme activity was assessed by incubation with […] TMB substrate solution (Moss no. TMB-US) for 20 minutes. The reaction was stopped by the addition of […] 0.18M sulfuric acid. Optical density was read at 450 nm on Wallac Victor2 plate reader. During the first incubation, toxicity was determined using MTS assay, Cell Titer96 AQ reagent (Promega no. G5430). The background values from the non-cultured medium control were subtracted from the sample values and secreted APP levels and toxicity were expressed as % vehicle control. Of the 144 MES compounds screened, 12 inhibited secreted APP as determined by ELISA. The results are depicted in FIGS. 13A-M.
(§2) Using the experimental procedure outlined above, APP secretion and toxicity studies were performed on several other non-carbamate compounds, and the results are shown in Tables 3 and 4. The compound structures are provided in Table 2 in the application, which are identified by their MES number.

SH-SY-5Y Cells = assay: MTS toxicity assay in SHSY5Y cells; type: cell-based, human
Procedure: as §1, §2

Compound | APP Secretion by SH-SY-5Y Cells (secreted APP; Dose 2 uM) [% vehicle control] | APP Secretion by SH-SY-5Y Cells (secreted APP; Dose 6 uM) [% vehicle control] | APP Secretion by SH-SY-5Y Cells (secreted APP; Dose 20 uM) [% vehicle control] | APP Toxicity SH-SY-5Y Cells (MTS assay) (SH-SY-5Y Cells; Dose 2 uM) [% vehicle control] | APP Toxicity SH-SY-5Y Cells (MTS assay) (SH-SY-5Y Cells; Dose 6 uM) [% vehicle control] | APP Toxicity SH-SY-5Y Cells (MTS assay) (SH-SY-5Y Cells; Dose 20 uM) [% vehicle control] | APP Secretion by SH-SY-5Y Cells (secreted APP; Dose 0.08 uM) [% vehicle control] | APP Secretion by SH-SY-5Y Cells (secreted APP; Dose 0.25 uM) [% vehicle control] | APP Secretion by SH-SY-5Y Cells (secreted APP; Dose 0.74 uM) [% vehicle control] | APP Toxicity SH-SY-5Y Cells (MTS assay) (SH-SY-5Y Cells; Dose 0.08 uM) [% vehicle control] | APP Toxicity SH-SY-5Y Cells (MTS assay) (SH-SY-5Y Cells; Dose 0.25 uM) [% vehicle control] | APP Toxicity SH-SY-5Y Cells (MTS assay) (SH-SY-5Y Cells; Dose 0.74 uM) [% vehicle control]
COc1ccc2c(c1)[C@]1(C)CCN(C)C1N2Cc1ccccc1 (single isomer, unassigned) [MES 9202] | 94.4 | 107.55 | 110.05 | 99.15 | 97.85 | 90.25 | – | – | – | – | – | –
COc1ccc2c(c1)[C@@]1(C)CCN(C)C1N2Cc1ccccc1 (single isomer, unassigned) [MES 9203] | 103.1 | 103.9 | 108.4 | 98.93 | 99.17 | 98.83 | – | – | – | – | – | –
COc1ccc2c(c1)[C@@]1(C)CCN(C)C1N2C (single isomer, unassigned; (+)) [MES 9295, (+)-O-Methyleseroline] | 102.6 | 95.7 | 89.35 | 101.15 | 100.4 | 99.85 | – | – | – | – | – | –
CN1CC[C@@]2(C)c3cc(O)ccc3N(C)C2NC1=O (single isomer, unassigned; (-)) [MES 9205] | 96.73 | 96.9 | 22.17 | 97.9 | 97.73 | 33.33 | 115.1 | 107.4 | 114.7 | 108.7 | 105.8 | 105.6
CN1c2ccc(OC3CCCCO3)cc2[C@]2(C)CCNC12 (single isomer, unassigned; (-)) [MES 9320, (−)-O-Tetrahydropyranyl-N-1-noreseroline] | 103.15 | 91.8 | 15.2 | 92 | 84 | 28 | – | – | – | – | – | –
COc1ccc2c(c1)c(CCN(C)C)cn2Cc1ccccc1 [MES 9191, N,N-Dimethyl-N^1-benzyl-5-methoxytryptamine] | 100.74 | 65.3 | 64.36 | 99.18 | 92.84 | 91.1 | 100.8 | 101.6 | 99.87 | 104.5 | 103.9 | 103.7
COc1ccc2c(c1)C1(C)CCN(C)C1N2Cc1ccccc1 (stereo not drawn) [MES 9199] | 92.2 | 93.9 | 102.95 | 100.5 | 101.65 | 101.9 | – | – | – | – | – | –
